Reference: PubChem BioAssay (NCI)
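Cells were grown in 96-well plates and exposed to each compound for 48 hours at five concentrations; endpoints were interpolated linearly between bracketing concentrations, or set to the highest concentration if not reached. TGI denotes the concentration required for complete inhibition of growth.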

Legend:
Test in all cases: DTP human tumour cell line panel, 48 h
SK-MEL-5 melanoma = test system: SK-MEL-5 melanoma
NCI/ADR-RES ovarian = test system: NCI/ADR-RES ovarian
M14 melanoma = test system: M14 melanoma
HCC-2998 colon = test system: HCC-2998 colon
MALME-3M melanoma = test system: MALME-3M melanoma
LOX IMVI melanoma = test system: LOX IMVI melanoma
HOP-92 NSCLC = test system: HOP-92 NSCLC
SK-MEL-2 melanoma = test system: SK-MEL-2 melanoma
RPMI-8226 leukemia = test system: RPMI-8226 leukemia
UACC-62 melanoma = test system: UACC-62 melanoma
OVCAR-8 ovarian = test system: OVCAR-8 ovarian
MDA-MB-435 = test system: MDA-MB-435
A498 renal = test system: A498 renal
HT29 colon = test system: HT29 colon
CAKI-1 renal = test system: CAKI-1 renal
OVCAR-4 ovarian = test system: OVCAR-4 ovarian
ACHN renal = test system: ACHN renal
OVCAR-3 ovarian = test system: OVCAR-3 ovarian
MDA-N = test system: MDA-N
SK-MEL-28 melanoma = test system: SK-MEL-28 melanoma
SW-620 colon = test system: SW-620 colon
EKVX NSCLC = test system: EKVX NSCLC
HCT-116 colon = test system: HCT-116 colon
COLO 205 colon = test system: COLO 205 colon
IGROV1 ovarian = test system: IGROV1 ovarian
A549 NSCLC = test system: A549 NSCLC
UACC-257 melanoma = test system: UACC-257 melanoma
HOP-62 NSCLC = test system: HOP-62 NSCLC
PC-3 prostate = test system: PC-3 prostate
HS 578T breast = test system: HS 578T breast
SR leukemia = test system: SR leukemia
KM12 colon = test system: KM12 colon
K-562 leukemia = test system: K-562 leukemia
SN12C renal = test system: SN12C renal
SK-OV-3 ovarian = test system: SK-OV-3 ovarian
SF-295 CNS = test system: SF-295 CNS
NCI-H226 lung = test system: NCI-H226 lung
DU-145 prostate = test system: DU-145 prostate
T-47D breast = test system: T-47D breast
HCT-15 colon = test system: HCT-15 colon
OVCAR-5 ovarian = test system: OVCAR-5 ovarian
SF-539 CNS = test system: SF-539 CNS
TK-10 renal = test system: TK-10 renal
UO-31 renal = test system: UO-31 renal
MDA-MB-231 breast = test system: MDA-MB-231 breast
NCI-H23 lung = test system: NCI-H23 lung
BT-549 breast = test system: BT-549 breast
MCF7 breast = test system: MCF7 breast
RXF 393 renal = test system: RXF 393 renal
U251 CNS = test system: U251 CNS
NCI-H522 lung = test system: NCI-H522 lung
786-0 renal = test system: 786-0 renal
SF-268 CNS = test system: SF-268 CNS
HL-60(TB) leukemia = test system: HL-60(TB) leukemia
MOLT-4 leukemia = test system: MOLT-4 leukemia
SNB-19 CNS = test system: SNB-19 CNS
NCI-H460 lung = test system: NCI-H460 lung
CCRF-CEM leukemia = test system: CCRF-CEM leukemia
SNB-75 CNS = test system: SNB-75 CNS

CC1OC2=N[C@@H]1C(=O)N[C@@H](Cc1ccccc1)C1=N[C@H](C(=O)N[C@@H](Cc3ccccc3)C3=N[C@H](C(=O)N[C@H]2Cc2ccccc2)C(C)O3)C(C)O1 (stereo partly specified)
TGI (SK-MEL-5 melanoma): 57.8 µM | TGI (NCI/ADR-RES ovarian): > 100 µM | TGI (M14 melanoma): 56.4 µM | TGI (HCC-2998 colon): > 100 µM | TGI (MALME-3M melanoma): 57.6 µM | TGI (LOX IMVI melanoma): 39.4 µM | TGI (HOP-92 NSCLC): 59.7 µM | TGI (SK-MEL-2 melanoma): 52.3 µM | TGI (RPMI-8226 leukemia): 34.1 µM | TGI (UACC-62 melanoma): 80.1 µM | TGI (OVCAR-8 ovarian): > 100 µM | TGI (MDA-MB-435): 81.7 µM | TGI (A498 renal): 91.9 µM | TGI (HT29 colon): 52.5 µM | TGI (CAKI-1 renal): 88.6 µM | TGI (OVCAR-4 ovarian): > 100 µM | TGI (ACHN renal): > 100 µM | TGI (OVCAR-3 ovarian): 75.8 µM | TGI (MDA-N): > 100 µM | TGI (SK-MEL-28 melanoma): 69.2 µM | TGI (SW-620 colon): > 100 µM | TGI (EKVX NSCLC): > 100 µM | TGI (HCT-116 colon): > 100 µM | TGI (COLO 205 colon): 34.4 µM | TGI (IGROV1 ovarian): > 100 µM | TGI (A549 NSCLC): > 100 µM | TGI (UACC-257 melanoma): 71.2 µM | TGI (HOP-62 NSCLC): > 100 µM | TGI (PC-3 prostate): 73.2 µM | TGI (HS 578T breast): 65.8 µM | TGI (SR leukemia): 62.6 µM | TGI (KM12 colon): > 100 µM | TGI (K-562 leukemia): 68.7 µM | TGI (SN12C renal): > 100 µM | TGI (SK-OV-3 ovarian): > 100 µM | TGI (SF-295 CNS): > 100 µM | TGI (NCI-H226 lung): 93.9 µM | TGI (DU-145 prostate): > 100 µM | TGI (T-47D breast): > 100 µM | TGI (HCT-15 colon): > 100 µM | TGI (OVCAR-5 ovarian): 68.5 µM | TGI (SF-539 CNS): 47.4 µM | TGI (TK-10 renal): 69.5 µM | TGI (UO-31 renal): > 100 µM | TGI (MDA-MB-231 breast): 72 µM | TGI (NCI-H23 lung): > 100 µM | TGI (BT-549 breast): > 100 µM | TGI (MCF7 breast): > 100 µM | TGI (RXF 393 renal): > 100 µM

CC(C)(C)OCC1NC(=O)[C@@H]2Cc3c([nH]c4ccccc34)C(C3CCCCC3)N2C1=O (stereo partly specified)
TGI (SK-MEL-5 melanoma): 29 µM | TGI (NCI/ADR-RES ovarian): 57.5 µM | TGI (M14 melanoma): 42 µM | TGI (MALME-3M melanoma): 42.8 µM | TGI (LOX IMVI melanoma): 33.3 µM | TGI (U251 CNS): 38.5 µM | TGI (HOP-92 NSCLC): 55.7 µM | TGI (SK-MEL-2 melanoma): 40.8 µM | TGI (RPMI-8226 leukemia): 49 µM | TGI (UACC-62 melanoma): 31.2 µM | TGI (OVCAR-8 ovarian): 87.3 µM | TGI (MDA-MB-435): 35.7 µM | TGI (A498 renal): > 100 µM | TGI (HT29 colon): 35.7 µM | TGI (CAKI-1 renal): 53.8 µM | TGI (OVCAR-4 ovarian): > 100 µM | TGI (ACHN renal): 68.6 µM | TGI (OVCAR-3 ovarian): 33.8 µM | TGI (MDA-N): 37.4 µM | TGI (SK-MEL-28 melanoma): 77.6 µM | TGI (SW-620 colon): 85.5 µM | TGI (EKVX NSCLC): 67.9 µM | TGI (NCI-H522 lung): 31.4 µM | TGI (HCT-116 colon): 30.5 µM | TGI (COLO 205 colon): 51.4 µM | TGI (786-0 renal): 50.2 µM | TGI (IGROV1 ovarian): 57.7 µM | TGI (A549 NSCLC): > 100 µM | TGI (UACC-257 melanoma): 41 µM | TGI (HOP-62 NSCLC): 39.6 µM | TGI (SF-268 CNS): 95.6 µM | TGI (HL-60(TB) leukemia): 52.1 µM | TGI (PC-3 prostate): 46.3 µM | TGI (HS 578T breast): 51.8 µM | TGI (SR leukemia): 45.4 µM | TGI (KM12 colon): 44 µM | TGI (K-562 leukemia): 61.6 µM | TGI (SN12C renal): 43.1 µM | TGI (SK-OV-3 ovarian): > 100 µM | TGI (MOLT-4 leukemia): 49.6 µM | TGI (SF-295 CNS): 40.8 µM | TGI (NCI-H226 lung): 74.9 µM | TGI (DU-145 prostate): > 100 µM | TGI (T-47D breast): 71.1 µM | TGI (HCT-15 colon): 69 µM | TGI (OVCAR-5 ovarian): 50.8 µM | TGI (TK-10 renal): 67.6 µM | TGI (UO-31 renal): 98.8 µM | TGI (SNB-19 CNS): > 100 µM | TGI (MDA-MB-231 breast): 35.1 µM | TGI (NCI-H23 lung): 57.8 µM | TGI (BT-549 breast): 56.8 µM | TGI (MCF7 breast): > 100 µM | TGI (RXF 393 renal): 38.4 µM

COc1ccccc1NCc1nnc(CCCCCCCCc2nnc(CNc3ccccc3OC)o2)o1
TGI (SK-MEL-5 melanoma): > 100 µM | TGI (NCI/ADR-RES ovarian): > 100 µM | TGI (M14 melanoma): > 100 µM | TGI (HCC-2998 colon): > 100 µM | TGI (MALME-3M melanoma): > 100 µM | TGI (LOX IMVI melanoma): > 100 µM | TGI (U251 CNS): > 100 µM | TGI (HOP-92 NSCLC): > 100 µM | TGI (NCI-H460 lung): > 100 µM | TGI (CCRF-CEM leukemia): > 100 µM | TGI (SK-MEL-2 melanoma): > 100 µM | TGI (RPMI-8226 leukemia): > 100 µM | TGI (UACC-62 melanoma): > 100 µM | TGI (OVCAR-8 ovarian): > 100 µM | TGI (MDA-MB-435): > 100 µM | TGI (A498 renal): > 100 µM | TGI (HT29 colon): > 100 µM | TGI (CAKI-1 renal): > 100 µM | TGI (OVCAR-4 ovarian): > 100 µM | TGI (ACHN renal): > 100 µM | TGI (OVCAR-3 ovarian): > 100 µM | TGI (MDA-N): > 100 µM | TGI (EKVX NSCLC): > 100 µM | TGI (NCI-H522 lung): > 100 µM | TGI (HCT-116 colon): > 100 µM | TGI (COLO 205 colon): > 100 µM | TGI (786-0 renal): > 100 µM | TGI (A549 NSCLC): > 100 µM | TGI (UACC-257 melanoma): > 100 µM | TGI (HOP-62 NSCLC): > 100 µM | TGI (SNB-75 CNS): > 100 µM | TGI (SF-268 CNS): > 100 µM | TGI (PC-3 prostate): > 100 µM | TGI (HS 578T breast): > 100 µM | TGI (SR leukemia): > 100 µM | TGI (KM12 colon): > 100 µM | TGI (K-562 leukemia): > 100 µM | TGI (SN12C renal): > 100 µM | TGI (SK-OV-3 ovarian): > 100 µM | TGI (MOLT-4 leukemia): > 100 µM | TGI (SF-295 CNS): > 100 µM | TGI (DU-145 prostate): > 100 µM | TGI (T-47D breast): > 100 µM | TGI (HCT-15 colon): > 100 µM | TGI (OVCAR-5 ovarian): > 100 µM | TGI (TK-10 renal): > 100 µM | TGI (UO-31 renal): > 100 µM | TGI (SNB-19 CNS): > 100 µM | TGI (MDA-MB-231 breast): > 100 µM | TGI (NCI-H23 lung): > 100 µM | TGI (BT-549 breast): > 100 µM | TGI (MCF7 breast): > 100 µM | TGI (RXF 393 renal): > 100 µM
